Format in all cases: biochemical
Test [1] addresses T1, MMP-1 (Homo sapiens, UniProt P03956).
T1 construct: purchased R&D Systems 901-MP
T1 sequence (P03956 100-469): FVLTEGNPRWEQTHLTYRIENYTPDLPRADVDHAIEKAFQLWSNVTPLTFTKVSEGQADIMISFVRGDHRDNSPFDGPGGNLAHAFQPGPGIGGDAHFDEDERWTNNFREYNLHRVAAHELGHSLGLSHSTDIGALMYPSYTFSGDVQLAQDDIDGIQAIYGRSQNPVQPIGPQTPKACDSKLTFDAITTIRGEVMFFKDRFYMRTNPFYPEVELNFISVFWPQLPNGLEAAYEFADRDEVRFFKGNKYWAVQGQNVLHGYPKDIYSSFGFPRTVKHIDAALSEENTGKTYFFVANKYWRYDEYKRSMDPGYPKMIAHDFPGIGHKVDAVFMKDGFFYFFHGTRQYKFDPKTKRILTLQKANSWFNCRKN
The test is described as follows: In vitro MMP-1 inhibition test. The settings on record: human MMP-1. From the text: (§1) The MMP-mediated amidolytic cleavage of a suitable peptide substrate leads to an increase in fluorescent light here too. The signal intensity of the fluorescent light is directly proportional to the enzyme activity. The active concentration of a test compound at which half the enzyme is inhibited (50% signal intensity of the fluorescent light) is reported as the IC50 value.
(§2) Recombinant MMP-1 (R&D Systems, 901-MP) is chemically activated in accordance with the manufacturer's instructions using APMA. 1 μl of the test compound to be analysed (as a solution in DMSO, suitable concentrations e.g. 1 nM to 30 μM) is pipetted into 24 μl of activated enzyme (final concentration e.g. 2 nM) in reaction buffer (50 mM Tris/HCl pH 7.5, 10 mM CaCl2, 150 mM NaCl, 0.05% Brij®-35) in a white 384-hole microtiter plate (MTP). The enzymatic reaction is started by adding the intramolecularly quenched Mca-Pro-Leu-Gly-Leu-Dpa(Dnp)-Ala-Arg-NH2 substrate (final concentration e.g. 10 μM; R&D Systems, ES-001), so as to result in a total test volume of 50 μl. The course of the MMP-1 reaction is measured by measuring the fluorescence intensity (excitation 320 nm, emission 410 nm) over a suitable period of time (e.g. over 120 min at a temperature of 32° C.).

In test [2] the target is T2, MMP-2 (Homo sapiens, UniProt P08253).
T2 construct: purchased R&D Systems 902-MP
T2 sequence (P08253 110-660): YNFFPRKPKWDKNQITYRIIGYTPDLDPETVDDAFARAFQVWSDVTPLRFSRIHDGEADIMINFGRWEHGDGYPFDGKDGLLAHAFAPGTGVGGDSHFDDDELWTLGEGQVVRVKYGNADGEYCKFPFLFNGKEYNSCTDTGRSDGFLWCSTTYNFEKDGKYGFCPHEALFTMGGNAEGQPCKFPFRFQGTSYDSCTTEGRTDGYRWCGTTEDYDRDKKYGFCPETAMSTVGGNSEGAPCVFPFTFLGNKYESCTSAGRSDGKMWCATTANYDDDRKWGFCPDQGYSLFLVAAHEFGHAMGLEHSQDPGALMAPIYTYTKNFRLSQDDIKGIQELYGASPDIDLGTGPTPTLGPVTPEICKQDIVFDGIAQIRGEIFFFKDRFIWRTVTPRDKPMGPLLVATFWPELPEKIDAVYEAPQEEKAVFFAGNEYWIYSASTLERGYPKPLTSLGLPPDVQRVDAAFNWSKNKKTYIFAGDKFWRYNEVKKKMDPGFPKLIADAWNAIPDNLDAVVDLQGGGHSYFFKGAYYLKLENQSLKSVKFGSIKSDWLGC
The test is described as follows: In vitro MMP-2 inhibition test. The settings on record: human MMP-2.
Description: as §1
as §2, with “MMP-2” for “MMP-1”, “902-MP)” for “901-MP)”

For test [3], the target named is T3, MMP-10 (Homo sapiens, UniProt P09238).
T3 construct: purchased R&D Systems 910-MP
T3 sequence (P09238 99-476): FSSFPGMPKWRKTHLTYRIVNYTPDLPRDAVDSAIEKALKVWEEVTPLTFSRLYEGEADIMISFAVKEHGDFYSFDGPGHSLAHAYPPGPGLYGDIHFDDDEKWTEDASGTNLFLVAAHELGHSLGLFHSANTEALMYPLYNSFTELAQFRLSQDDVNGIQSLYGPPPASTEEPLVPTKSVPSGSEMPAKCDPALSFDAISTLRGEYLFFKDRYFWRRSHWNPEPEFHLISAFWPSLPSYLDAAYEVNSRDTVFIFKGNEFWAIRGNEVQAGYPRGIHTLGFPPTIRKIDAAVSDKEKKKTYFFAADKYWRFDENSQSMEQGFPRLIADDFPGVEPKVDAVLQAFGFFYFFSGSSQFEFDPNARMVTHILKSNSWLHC
In words: In vitro MMP-10 inhibition test. The settings on record: human MMP-10.
Description: as §1
as §2, with “MMP-10” for “MMP-1”, “910-MP)” for “901-MP)”, “Mca-Arg-Pro-Lys-Pro-Val-Glu-Nval-Trp-Arg-Lys(Dnp)-NH2” for “Mca-Pro-Leu-Gly-Leu-Dpa(Dnp)-Ala-Arg-NH2”, “ES-002),” for “ES-001),”

Bounds are passed on as bounds.

Consider `O=C(CC(CCn1nnc2ccccc2c1=O)C(=O)O)c1noc2cc(OCc3cccnc3)ccc12` (racemic) [Example 148, (+/−)-4-Oxo-2-[2-(4-oxo-1,2,3-benzotriazin-3(4H)-yl)ethyl]-4-[6-(pyridin-3-ylmethoxy)-1,2-benzoxazol-3-yl]butanoic acid], for which the IC50 is greater than 40 µM in test [1], 0.27 µM in test [2] and 0.2 µM in test [3].

Consider `CCCCCOc1ccc2c(C(=O)CC(CCn3nnc4ccccc4c3=O)C(=O)O)coc2c1` (single isomer, unassigned) [Example 91, 4-Oxo-2-[2-(4-oxo-1,2,3-benzotriazin-3(4H)-yl)ethyl]-4-[6-(pentyloxy)-1-benzofur-3-yl]butanoic acid], for which the IC50 in test [1] is greater than 40 µM; in test [2], 0.096 µM; in test [3], 4.7 µM.

In the case of `O=C(CC(CCn1nnc2ccccc2c1=O)C(=O)O)c1cc2ccc(OCC3CC3)cc2s1` (racemic) [Example 111, (+/−)-4-[6-(Cyclopropylmethoxy)-1-benzothiophen-2-yl]-4-oxo-2-[2-(4-oxo-1,2,3-benzotriazin-3(4H)-yl)ethyl]butanoic acid], the figures for the IC50 in test [1], in test [2] and in test [3] were greater than 40 µM, 0.35 µM and 4.7 µM, respectively.

For the compound `CCCCCCCOc1ccc2c(C(=O)CC(CCn3nnc4ccccc4c3=O)C(=O)O)coc2c1` (racemic) [Example 101, (+/−)-4-[6-(Heptyloxy)-1-benzofur-3-yl]-4-oxo-2-[2-(4-oxo-1,2,3-benzotriazin-3(4H)-yl)ethyl]butanoic acid], the values for the IC50 in test [1], in test [2] and in test [3] were greater than 40 µM, 0.66 µM and greater than 40 µM, respectively.

As for `O=C(CC(CCn1nnc2ccccc2c1=O)C(=O)O)c1onc2cc(OCc3ccccc3)ccc12` (racemic) [Example 156, (+/−)-4-[6-(Benzyloxy)-2,1-benzoxazol-3-yl]-4-oxo-2-[2-(4-oxo-1,2,3-benzotriazin-3(4H)-yl)ethyl]butanoic acid], the IC50 in test [1] is greater than 40 µM; in test [2], 1.4 µM; in test [3], 28 µM.

`O=C(CC(CCn1nnc2ccccc2c1=O)C(=O)O)c1cc2cc(OCc3ccccc3)ccc2o1` (single isomer, unassigned; (+)) [Example 30, (+)-4-[5-(Benzyloxy)-1-benzofur-2-yl]-4-oxo-2-[2-(4-oxo-1,2,3-benzotriazin-3(4H)-yl)ethyl]butanoic acid]: the IC50 in test [1] is greater than 40 µM; in test [2], 6.1 µM; in test [3], 30 µM.

Regarding `O=C(CC(CCn1nnc2ccccc2c1=O)C(=O)O)c1cc2ccc(OCCc3ccccc3)cc2o1` (racemic) [Example 73, (+/−)-4-Oxo-2-[2-(4-oxo-1,2,3-benzotriazin-3(4H)-yl)ethyl]-4-[6-(2-phenylethoxy)-1-benzofur-2-yl]butanoic acid], the IC50 in test [1] is greater than 40 µM; in test [2], 1.3 µM; in test [3], greater than 40 µM.

As for `O=C(CC(CCn1nnc2ccccc2c1=O)C(=O)O)c1cc2cc(OCc3cccc(Cl)c3)ccc2o1` (racemic) [Example 50, (+/−)-4-{5-[(3-Chlorobenzyl)oxy]-1-benzofur-2-yl}-4-oxo-2-[2-(4-oxo-1,2,3-benzotriazin-3(4H)-yl)ethyl]butanoic acid], the IC50 is greater than 40 µM in test [1], 3.8 µM in test [2] and 20 µM in test [3].

`O=C(CC(CCn1nnc2ccccc2c1=O)C(=O)O)c1cc2cc(OCCc3ccccc3Cl)ccc2o1` (racemic) [Example 1, (+/−)-4-{5-[2-(2-Chlorophenyl)ethoxy]-1-benzofur-2-yl}-4-oxo-2-[2-(4-oxo-1,2,3-benzotriazin-3(4H)-yl)ethyl]butanoic acid]: the IC50 in test [1] was greater than 40 µM; in test [2], greater than 40 µM; in test [3], 28 µM.

Turning to `CCCCCCCOc1ccc2oc(C(=O)CC(CCn3nnc4ccccc4c3=O)C(=O)O)cc2c1` (racemic) [Example 31, (+/−)-4-[5-(Heptyloxy)-1-benzofur-2-yl]-4-oxo-2-[2-(4-oxo-1,2,3-benzotriazin-3(4H)-yl)ethyl]butanoic acid], the figures for the IC50 in test [1], in test [2] and in test [3] were greater than 40 µM, 4.4 µM and greater than 40 µM, respectively.

For the compound `O=C(CC(CCn1nnc2ccccc2c1=O)C(=O)O)c1coc2cc(OCCC3CCCC3)ccc12` (racemic) [Example 75, (+/−)-4-[6-(2-Cyclopentylethoxy)-1-benzofur-3-yl]-4-oxo-2-[2-(4-oxo-1,2,3-benzotriazin-3(4H)-yl)ethyl]butanoic acid], the 50% inhibitory concentration (IC50) in test [1] is greater than 40 µM; in test [2], 0.39 µM; in test [3], 7.7 µM.

With `O=C(CC(CCn1nnc2ccccc2c1=O)C(=O)O)c1cc2cc(OCc3ccc(F)cc3)ccc2o1` (single isomer, unassigned; (+)) [Example 23, (+)-4-{5-[(4-Fluorobenzyl)oxy]-1-benzofur-2-yl}-4-oxo-2-[2-(4-oxo-1,2,3-benzotriazin-3(4H)-yl)ethyl]butanoic acid], the IC50 is greater than 40 µM in test [1], 1.9 µM in test [2] and 11 µM in test [3].

As for `O=C(CC(CCn1nnc2ccccc2c1=O)C(=O)O)c1noc2cc(OCCc3ccccc3)ccc12` (racemic) [Example 144, (+/−)-4-Oxo-2-[2-(4-oxo-1,2,3-benzotriazin-3(4H)-yl)ethyl]-4-[6-(2-phenylethoxy)-1,2-benzoxazol-3-yl]butanoic acid], the figures for the IC50 in test [1], in test [2] and in test [3] were greater than 40 µM, 0.73 µM and 29 µM, respectively.

On to `O=C(CC(CCn1nnc2ccc(C(F)(F)F)cc2c1=O)C(=O)O)c1noc2cc(OCc3ccccc3)ccc12` (racemic) [Example 154, (+/−)-4-[6-(Benzyloxy)-1,2-benzoxazol-3-yl]-4-oxo-2-{2-[4-oxo-6-(trifluoromethyl)-1,2,3-benzotriazin-3(4H)-yl]ethyl}butanoic acid], for which the IC50 in test [1] is greater than 40 µM; in test [2] it was 5.6 µM; in test [3], 3.3 µM.

The term IC50 denotes the midpoint of a concentration-inhibition curve. A higher IC50 goes with lower potency.
